The record followed here is patent US9896512B2, “Antitumor peptide derived from a complementarity determining region of a humanized monoclonal antibody to NAP12B transporter” (Recepta Biopharma S.A., priority 2010, dated 2018).

The subject of one data set is tumor cells. Briefly: Cell adherence assay (detachment with trypsin/EDTA). The conditions noted are these: for adherence at peptide concentration of 1 mM (not suspended by trypsin/EDTA): 1 mM peptide; for adherence of tumor cells to the substrate: 96-well plates, RPMI 10% FCS, seen in B16F10-Nex2.1, U87MG, A5028 melanoma, SKBR3, SiHa, HCT cells. The format is cell-based. As to the method:
At a lower dose, cells would be detached with trypsin/EDTA at rates inversely proportional to the peptide concentration. Conceivably, peptides RB9 and RB10 affected the cytoskeleton dynamics of cells, thus signaling increased cell adhesion.
B16F10-Nex2.1 cells (5×10^3) and U87-MG cells (1×10^4) were cultivated in 96-well plates and incubated with different concentrations of RB9 (SEQ ID NO: 8) and RB10 (SEQ ID NO: 9) from 0.01 to 1 mM (i.e., 0.01, 0.05, 0.1, 0.25, 0.7, 0.8 and 1 mM of RB9 and RB10 for B16F10-Nex 2.1 cells; and 0.25, 0.5, 0.75 and 1 mM of RB9 and RB10 for U87-MG cells). After 18 hours incubation, viable cells detached with trypsin/EDTA were counted using Trypan blue exclusion staining. All assays were performed in triplicate in two independent experiments.
(§1) SKBR3 cells (1×10^4) were cultivated in 96-well plates and incubated with RB9 (SEQ ID NO: 8) and RB10 (SEQ ID NO: 9). After 18 hours incubation, viable cells detached with trypsin/EDTA were counted using Trypan blue exclusion staining. Assays were performed in triplicate in two independent experiments. The A2058 human melanoma cells (1×10^4) were incubated for 4 hours at 37° C. in a humidified chamber with 5% CO2. Fresh media containing different peptide concentrations of RB9 and RB10 ranging from 0 to 1 mM (i.e., 0, 0.25, 0.5 and 1 mM) was added to the wells and incubated for 24 hours. The media was then aspirated, cells were detached with 30 μl/well of trypsin-EDTA for five minutes at 37° C. and viable cells were counted in a Neubauer chamber using Trypan blue. As shown in FIGS. 2A-2D, 50% of cells were trypsin-EDTA resistant at 630 and 610 μM RB9 and RB10, respectively.

In data set [1] the test system is A2058 human melanoma cells. Briefly: Cell adherence, trypsin-EDTA detachment, Trypan blue count. The format is cell-based. Particulars: 24 hours; FIGS. 2A-2D (SKBR3 and A2058), cell line not given; read-out: peptide concentration at which 50% of cells were trypsin-EDTA resistant. How it is done:
as §1

The test system of another data set is SiHa cells. Briefly: Detection of peptide-treated hyper adherent cells (MTT after trypsin-EDTA). Type of data set: cell-based, human. The conditions noted are these: 500 μM peptide, 24 hours. How it is done: (§2) Viable SiHa cells (1×10^4)/well were distributed on a 96-well culture plate and incubated for 4 hours at 37° C. in a humidified chamber with 5% CO2. Fresh medium containing different peptide concentrations of RB9 (SEQ ID NO: 8) and RB10 (SEQ ID NO: 9) ranging from 0 to 1 mM (i.e., 0, 0.25, 0.5 and 1 mM) was added to the wells and incubated for 24 hours. The medium was then aspirated; cells were detached with 30 μl/well of trypsin-EDTA for five minutes at 37° C. and gently washed with PBS. Hyper-adherent cells were incubated for 4 hours with 0.5 mg/mL of MTT [3-(4,5-dimethylthiazol-2-yl)-2,5-diphenyltetrazolium bromide] in fresh medium and formazan crystals were solubilized adding 1 volume of 10% SDS solution overnight. Intensity was measured using a plate reader at 570 nm.

In the next data set the test system is HCT cells. The data set is described as above. Particulars: 500 μM peptide, 24 hours. Type of data set: cell-based, human. As to the method:
as §2
Viable HCT cells (1×10^4)/well were distributed on a 96-well culture plate and incubated for 4 hours, following the same protocol of Example 5.

A further data set relates to HL-60 cells. Briefly: Cell viability, Trypan blue count or MTT assay. The format is cell-based, human. Particulars: for cytotoxicity to HL-60 cells: cells growing in suspension, Trypan blue / MTT. As to the method:
Viable HL-60 cells (1×10^4)/well were distributed on a 96-well culture plate and incubated for 4 hours with different concentrations of RB9 (SEQ ID NO: 8) ranging from 0 to 1 mM for 24 hours. Cell viability was directly measured by counting in a Neubauer chamber with Trypan blue or estimated by the colorimetric MTT assay.

The next data set concerns OVCAR-3 cells. Briefly: Effect on ovarian carcinoma cells (trypsin-EDTA detachment, Trypan blue or MTT). The format is cell-based, human. The conditions noted are these: for cytotoxicity / activity against OVCAR-3 cells: 0 to 1 mM, 24 hours, Trypan blue / MTT; for hyper-adherent effect (detachment with trypsin/EDTA): up to 1 mM peptide. As to the method:
Viable OVCAR-3 cells (1×10^4)/well were distributed on a 96-well culture plate and incubated for […] with different concentrations of RB9 (SEQ ID NO: 8) ranging from 0 to 1 mM for 24 hours. Cells were detached with 30 μl/well of trypsin-EDTA for five minutes at 37° C. and counted in a Neubauer chamber with Trypan blue or estimated by the colorimetric MTT assay.

Data set [2] deals with B16F10-Nex2 melanoma cells. Briefly: In vivo protection against lung colonization (metastatic melanoma model). Also noted: species or system C57B1/6 mice. The conditions noted are these: 250 μg i.p. on days 1, 3, 5, 7, 9, 11; lungs after 22 days. How it is done: Details of the in vitro tumor cell growth, cytotoxicity tests, determination of viable cells and in vivo protection experiments with B16F10 cells in a mouse metastatic model are described in Polonelli et al. (PLoS One. 3(6):e2371, 2008) and Dobroff et al. (Translat. Onc., 3: 204-217, 2010).
Peptides RB9 and RB10 along with the apoptotic peptide A4H3, a true microantibody of cytotoxic anti-melanoma mAb (A4) (Dobroff et al., Translat. Onc., 3: 204-217, 2010), were tested for their protective effects against lung colonization by B16F10-Nex2 melanoma cells (2×105) injected intravenously in C57B1/6 mice (6 animals/group). Peptides were intraperitoneally administered (250 μg i.p.) on days 1, 3, 5, 7, 9, 11 after tumor cell challenge. Lungs of peptide-treated animals are shown in FIG. 5 after 22 days of tumor challenge. As noticed, peptide treatment was interrupted 10 days before animal sacrifice.
In vivo protection by peptides RB9 and RB10 (and A4H3 control) against lung colonization by B16F10-Nex2 melanoma cells (2×105) injected intravenously in C57B1/6 mice (6 animals/group) is shown in FIG. 6. The other 5 CDRs of RebMab200 (SEQ ID NOs: 7, 10, 11, 12, 13) were unprotective in vivo. Peptides were administered in the same way as described above, and the number of lung nodules was determined.

Data set [3] relates to human cervix cancer SiHa cells. Nature of the data set: Cell migration, wound healing assay. The format is cell-based. Particulars: peptide 500 μM, 24 hours. How it is done: (§3) For the migration studies, 5×10^5 or 10^6 cells were distributed on 6-well plates and let them to adhere for 2 hours at 37° C./5% CO2. The culture medium was changed and the peptide was added at 500 μM overnight. The cell monolayer was “wounded” with a P1000 tip and incubated for 24 hours. Images of untreated cells (control) and peptide treated cells were captured with a JENOPTIK camera. Cell numbers (nuclei) were determined using the Pixcavator software version 5.0.

Data set [4] relates to human glioblastoma U87 cells. Nature of the data set: Cell migration, wound healing assay. The format is cell-based. Particulars: peptide 500 μM, 24 hours. As to the method: as §3

Entries after “also recorded” stand apart in the source; their conditions may differ. No end group written: not given here.

With “CARGETARATFAYWGQG-NH2 [RB10, CARGETARATFAYWGQG-NH2]”, in the data set with tumor cells, the “adherence at peptide concentration of 1 mM (not suspended by trypsin/EDTA)” value is listed as “hyper-adherence” and the “adherence of tumor cells to the substrate” value is “dose dependent increase of adherence”. In addition, in data set [1], the EC50 stood at 610 µM. In addition, the “tumor cells resistant to trypsinization” value with SiHa cells is recorded as 80%. Also, the “cells resistant to trypsinization” value in the data set with HCT cells came to 80%. In addition, the “cytotoxicity to HL-60 cells” value in the data set with HL-60 cells is “mildly cytotoxic”. Moreover, in the data set with OVCAR-3 cells, the “cytotoxicity / activity against OVCAR-3 cells” value was “inactive” and the “hyper-adherent effect (detachment with trypsin/EDTA)” value is “normally detached”. Besides, the “protection against lung colonization (lung nodules)” value in [2] is given as “successfully protected; also recorded: protective; also recorded: reduced”. The “inhibition of cell migration” value in [3] was “complete or almost complete inhibition”. In addition, in data set [4], the “inhibition of cell migration” value is on record as “partial migration inhibition”.
For `C[C@@H]1NC(=O)[C@H](CCCNC(=N)N)NC(=O)[C@H](C)NC(=O)[C@H]([C@@H](C)O)NC(=O)[C@H](CCC(=O)O)NC(=O)CNC(=O)[C@H](CCCNC(=N)N)NC(=O)[C@H](C)NC(=O)[C@@H](N)CSSC[C@@H](C(N)=O)NC(=O)CNC(=O)[C@H](CCC(N)=O)NC(=O)CNC(=O)[C@H](Cc2c[nH]c3ccccc23)NC(=O)[C@H](Cc2ccc(O)cc2)NC(=O)[C@H](C)NC(=O)[C@H](Cc2ccccc2)NC(=O)[C@H]([C@@H](C)O)NC1=O` [RB9, CARGETARATFAYWGQGC-NH2], in the data set with tumor cells, the “adherence at peptide concentration of 1 mM (not suspended by trypsin/EDTA)” value is reported as “hyper-adherence”. In addition, the “adherence of tumor cells to the substrate” value in the data set on tumor cells is “dose dependent increase of adherence”. Further, the EC50 was 630 µM in data set [1]; 920 to 930 µM in the data set on HL-60 cells (24 hours, Trypan blue and MTT, read-out: concentration reducing cell viability by 50% (ED50)). The “tumor cells resistant to trypsinization” value with SiHa cells is reported as 30%. The “cells resistant to trypsinization” value in the data set on HCT cells was 80%. For the same molecule, the “cytotoxicity to HL-60 cells” value with HL-60 cells was “mildly cytotoxic; also recorded: mild cytotoxicity”. The “cytotoxicity / activity against OVCAR-3 cells” value in the data set with OVCAR-3 cells is “inactive; also recorded: no significant decrease in viability; also recorded: lack of cytotoxicity”. In the data set with OVCAR-3 cells, the “hyper-adherent effect (detachment with trypsin/EDTA)” value is “normally detached; also recorded: most cells were unaffected”. Further, the “protection against lung colonization (lung nodules)” value in data set [2] is on record as “successfully protected; also recorded: reduced”. In addition, the figures for the “inhibition of cell migration” value in [3] and in [4] were “no effect; also recorded: non-inhibition” and “poorly; also recorded: partial inhibition”, respectively.
